Test results as given in BigSolDB 2.1.

Details: 298.15 K

O=[N+]([O-])c1cccc2ccccc12
Details	solubility (mole fraction)
in 2-ethylhexanol	0.0411
in 2-methyl-1-butanol	0.0297
in 2-methyl-1-pentanol	0.0367
in 2-pentanol	0.0324
in 4-methyl-2-pentanol	0.0311
in MTBE	0.214
in acetonitrile	0.328
in benzene	0.423
in butyronitrile	0.383
in cyclohexane	0.025
in cyclooctane	0.036
in cyclopentanol	0.0599
in dibutyl ether	0.0996
in diethyl ether	0.237
in diisopropyl ether	0.104
in ethanol	0.0277
in ethylene glycol	0.00463
in isobutanol	0.0173
in isooctane	0.0163
in isopentanol	0.032
in isopropanol	0.0213
in methylcyclohexane	0.0277
in n-butanol	0.0348
in n-decane	0.0274
in n-decanol	0.0666
in n-heptane	0.0198
in n-heptanol	0.0539
in n-hexadecane	0.0394
in n-hexane	0.0174
in n-hexanol	0.0493
in n-nonane	0.0252
in n-octane	0.0223
in n-octanol	0.0593
in n-pentanol	0.0424
in n-propanol	0.0295
in propionitrile	0.37
in sec-butanol	0.0331
in tert-butanol	0.0228
in tert-butylcyclohexane	0.0303
in toluene	0.421
in undecane	0.0293
